Test results published in patent US5661139A, “Bis-(2-aryl) hydrazones” (Alteon Inc., priority 1995, dated 1997).

What was measured:
[1] = Inhibition of cross-linking of N-acetyl glycyl-lysine methyl ester in the presence of ribose (fluorescence); assay type: biochemical; settings: 0.5M sodium phosphate buffer pH 7.4, ribose, 37 C, 16-24 hours; fluorescence ex 350 nm / em 400 nm
Experimental: N-acetylglycyllysine methyl ester (DP in formula below) Ribose (R in formula below)
0.5M sodium phosphate buffer pH 7.4 N-acetylglycyllysine methyl ester in 0.5M sodium phosphate buffer, pH 7.4
Test compounds dissolved in the above buffer and the pH is adjusted to 7.4, if necessary
Reaction mixtures are prepared as follows:
and incubated at 37 C for 16-24 hours. At the end of the incubation period, the fluroescence is read using an excitation wavelength of 350 nm and emission wavelenth of 400 nm. The inhibition of the cross-linking is calculated from the decrease in the fluorescence in the presence of the test compounds according to the formula:
Inhibition (%)=100×[DPRC fluorescence-RC fluorescence]/DPR

[2] = tested on: glycated bovine serum albumin (AGE-BSA) cross-linking to rat tail tendon collagen; settings: 4 h, pH 7.4
Experimental: The following method was used to evaluate the ability of the compounds of the present invention to inhibit the cross-linking of glycated bovine serum albumin (AGE-BSA), to the rat tail tendon collagen coated 96-well plate.
The AGE-BSA was prepared by incubating BSA at a concentration of 200 mg per ml with 200 mM glucose in 0.4M sodium phosphate buffer, pH 7.4 at 37° C. for 12 weeks. The glycated BSA was then extensively dialyzed against phosphate buffer solution (PAS) for 48 hours with additional 5 times buffer exchanges. […] The blocking solution was removed from the wells by washing the plate twice with PAS-Tween 20 solution (0.05% Tween 20) using a NUNC-multiprobe or Dynatech ELISA-plate washer. […] The cross-linked AGE-BSA to the tail tendon coated plate was then quantitated by the polyclonal antibody raised against AGE-RNase. […]
The bound AGE antibody was then detected with the addition of horseradish peroxidase-conjugated secondary antibody, e.g., goat anti-rabbit immunoglobulin and incubation for 30 minutes. […] The reaction was allowed for an additional 15 minutes and the absorbance was read at 410 nm in a Dynatech plate reader.
The % inhibition of each test compound was calculated as follows. […]

[3] = tested on: fixed protein (gelatin, i.e., collagen) surface; test: Surface browning experiment on gelatin/paper disks with glucose-6-phosphate; settings: Peridex at a final concentration of 0.04% chlorhexidine, with 100 Mm glucose-6-phosphate, one week at 50° C.
Experimental: To further study the ability of inhibitors of nonenzymatic browning to prevent the discoloration of protein on a surface, such as that which occurs on the tooth surface, the following surface browning experiment is performed. As a substitute for a pellicle-covered tooth surface, unexposed and developed photographic paper is used to provide a fixed protein (gelatin, i.e., collagen) surface on a paper backing. Five millimeter circles are punched and immersed for one week at 50° C. in a solution of 100 Mm glucose-6-phosphate in a 0.5M phosphate buffer, pH 7.4, containing 3 Mm sodium azide. Glucose-6-phosphate is a sugar capable of participating in nonenzymatic browning at a more rapid rate than glucose. In addition to the glucose-6-phosphate, chlorhexidine and/or a compound of Formula I are included. After incubation, the gelatin/paper disks are rinsed with water, observed for brown color, and photographed.

Row | IC50 [1] [µM] | IC50 [2] [µM] | Compound | browning of the gelatin/paper disks [3]
1 | 597 |  | CC(C=NNc1ccccc1C(=O)OCCOP(=O)(O)O)=NNc1ccccc1C(=O)OCCOP(=O)(O)O [Methyl Glyoxal Bis-(2-Hydroxyethylphosphate-2-Hydrazinobenzoate) Hydrazone] | 
2 | 118 | 11500 | CC(C=NNc1ccc(C(=O)O)cc1)=NNc1ccc(C(=O)O)cc1 [Methyl Glyoxal Bis-(4-Hydrazinobenzoic Acid) Hydrazone] | 
3 | 10000 |  | CCOC(=O)c1ccccc1NN=CC(C)=NNc1ccccc1C(=O)OCC [Methyl Glyoxal Bis-(Diethyl 2-Hydrazinobenzoate) Hydrazone] | 
4 | > 10000 |  | COCCOCCOC(=O)c1ccccc1NN=CC(C)=NNc1ccccc1C(=O)OCCOCCOC [Methyl Glyoxal Bis-(Diethylene Glycol Methyl Ether 2-Hydrazinobenzoate) Hydrazone] | 
5 | > 10000 |  | COC(=O)c1ccccc1NN=CC(C)=NNc1ccccc1C(=O)OC [Methyl Glyoxal Bis-(Dimethyl 2-Hydrazinobenzoate)Hydrazone] | 
6 | 10000 |  | COC(=O)c1ccc(NN=CC(C)=NNc2ccc(C(=O)OC)cc2)cc1 [Methyl Glyoxal Bis-(Dimethyl 4-Hydrazinobenzoate) Hydrazone] | 
7 | > 10000 |  | CC(C=NNc1ccccc1)=NNc1ccccc1 [Methyl Glyoxal Bis-(Phenylhydrazine) Hydrazone] | 
8 | 1530 |  | CC(C=NNc1ccccc1C(=O)OCCOCCOCCO)=NNc1ccccc1C(=O)OCCOCCOCCO [Methyl Glyoxal Bis-(Triethylene Glycol 2-Hydrazinobenzoate) Hydrazone] | 
9 | > 3000 |  | CC(C=NNc1ccccc1C(=O)OCC(O)CO)=NNc1ccccc1C(=O)OCC(O)CO (centres unmarked) [Methyl Glyoxal Bis-[1-(2,3-Dihydroxypropane)-2-Hydrazinobenzoate] Hydrazone] | 
10 | 3000 |  | CC(C=NNc1ccccc1C(=O)OCCO)=NNc1ccccc1C(=O)OCCO [Methyl Glyoxal Bis-[1-(2-Hydroxyethane)-2-Hydrazinobenzoate] Hydrazone] | 
11 | 1240 |  | CC(C=NNc1ccccc1C(=O)OCc1ccncc1)=NNc1ccccc1C(=O)OCc1ccncc1 [Methyl Glyoxal Bis-[4-Methylpyridyl)-2-Hydrazinobenzoate] Hydrazone] | 
12 | 156 | 40 | CC(C=NNc1ccccc1C(=O)O)=NNc1ccccc1C(=O)O [Methylglyoxal Bis-(2-Hydrazinobenzoic Acid) Hydrazone] | 
13 |  |  | [H]/N=C(\N/C(=N/[H])NCCCCCCNC(=N)NC(=N)Nc1ccc(Cl)cc1)Nc1ccc(Cl)cc1 [chlorhexidine] | significant browning

Row | Compound | IC50 [1] [µM] | IC50 [2] [µM] | browning of the gelatin/paper disks [3]
14 | CC(C=NNc1ccccc1C(=O)OCc1ccc([N+](=O)[O-])cc1)=NNc1ccccc1C(=O)OCc1ccc([N+](=O)[O-])cc1 | 10000 |  | 
15 | Methyl Glyoxal Bis-[(1-Hydroxymethyl-1-Acetoxy)-2-Hydrazinobenzoate] Hydrazone | 764 |  | 
